Patent US8334382B2, “Substituted biaryl piperazinyl-pyridine analogues” (Neurogen Corporation, priority 2004, dated 2012)

Biological target: T1, human capsaicin receptor (Homo sapiens, UniProt Q8NER1)
T1 construct: expressed in transfected cells; host or cells: HEK293, stably transfected with pBK-CMV construct
Test: Calcium mobilization assay, determination of antagonist activity
Format: cell-based
Conditions: capsaicin at EC50; cells expressing human capsaicin receptor; Example 6
Outline: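 IC50 is the antagonist level giving a 50% drop in the capsaicin (EC50) calcium signal, read by FLIPR in Fluo-3 AM-loaded stable HEK293 lines bearing full-length human receptor. Compounds at 1-5 µM final were preincubated 0.5-6 h, room temperature, dark, in KRH pH 7.4.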

T1 sequence (Q8NER1 whole entry): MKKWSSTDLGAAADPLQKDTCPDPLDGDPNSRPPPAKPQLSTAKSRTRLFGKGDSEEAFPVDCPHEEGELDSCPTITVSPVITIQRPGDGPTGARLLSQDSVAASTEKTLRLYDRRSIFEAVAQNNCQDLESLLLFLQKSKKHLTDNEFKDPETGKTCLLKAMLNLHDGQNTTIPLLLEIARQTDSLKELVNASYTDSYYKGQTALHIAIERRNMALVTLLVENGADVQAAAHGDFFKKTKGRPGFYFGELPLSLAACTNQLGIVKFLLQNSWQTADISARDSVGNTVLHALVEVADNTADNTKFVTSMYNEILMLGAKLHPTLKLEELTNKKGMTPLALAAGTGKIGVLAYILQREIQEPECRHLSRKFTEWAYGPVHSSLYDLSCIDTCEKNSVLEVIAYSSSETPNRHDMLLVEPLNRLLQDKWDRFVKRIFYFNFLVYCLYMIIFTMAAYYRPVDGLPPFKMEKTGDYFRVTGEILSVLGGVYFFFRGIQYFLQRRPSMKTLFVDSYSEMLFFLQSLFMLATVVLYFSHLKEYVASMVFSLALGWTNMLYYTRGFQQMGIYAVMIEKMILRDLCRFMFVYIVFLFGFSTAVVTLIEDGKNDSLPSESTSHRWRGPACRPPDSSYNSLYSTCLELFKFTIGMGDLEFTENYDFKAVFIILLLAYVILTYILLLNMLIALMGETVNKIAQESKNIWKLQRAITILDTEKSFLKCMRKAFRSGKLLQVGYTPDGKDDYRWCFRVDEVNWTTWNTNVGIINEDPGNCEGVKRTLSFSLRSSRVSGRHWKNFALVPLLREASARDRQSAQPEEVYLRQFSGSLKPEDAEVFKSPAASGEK

| SMILES | IC50 |
| --- | --- |
| Cc1cc(C(N)=O)cnc1N1CCN(c2cc(-c3ccccc3)nc(N3CCCC3C)n2)CC1 (stereo not drawn) [Example 87, 5-Methyl-6-{4-[2-(2-methyl-pyrrolidin-1-yl)-6-phenyl-pyrimidin-4-yl]-piperazin-1-yl}-nicotinamide] | ≤ 1000 nM |
| Cc1cccc(-c2cc(N3CCN(c4ncc(C(N)=O)cc4C)CC3)nc(N3CCCC3C)n2)c1 (stereo not drawn) [Example 88, 5-Methyl-6-{4-[2-(2-methyl-pyrrolidin-1-yl)-6-m-tolyl-pyrimidin-4-yl]-piperazin-1-yl}-nicotinamide] | ≤ 1000 nM |
| Cc1cc(C(N)=O)cnc1N1CCN(c2cc(-c3ccncc3)nc(N3CCCC3C)n2)CC1 (stereo not drawn) [Example 89, 5-Methyl-6-{4-[2-(2-methyl-pyrrolidin-1-yl)-6-pyridin-4-yl-pyrimidin-4-yl]-piperazin-1-yl}-nicotinamide] | ≤ 1000 nM |
| Cc1cc(C(N)=O)cnc1N1CCN(c2cc(-c3ccnc(C(C)C)c3)nc(N3CCCC3C)n2)CC1 (stereo not drawn) [Example 90, 6-{4-[6-(2-Isopropyl-pyridin-4-yl)-2-(2-methyl-pyrrolidin-1-yl)-pyrimidin-4-yl]-piperazin-1-yl}-5-methyl-nicotinamide] | ≤ 1000 nM |
| Cc1cc(C(=N)N)cnc1N1CCN(c2cc(-c3ccc(F)cc3)nc(N3CCCC3C)n2)CC1 (stereo not drawn) [Example 91, 6-{4-[6-(4-fluorophenyl)-2-(2-methylpyrrolidin-1-yl)pyrimidin-4-yl]piperazin-1-yl}-5-methylpyridine-3-carboximidamide] | ≤ 1000 nM |
| C[C@@H]1CCCN1c1nc(-c2ccc(F)cc2)cc(N2CCN(c3ncc(C(=O)O)cc3Cl)CC2)n1 [Example 92, 5-Chloro-6-{4-[6-(4-fluoro-phenyl)-2-(2-(R)-methyl-pyrrolidin-1-yl)-pyrimidin-4-yl]-piperazin-1-yl}-nicotinic acid] | ≤ 1000 nM |
| C[C@@H]1CCCN1c1nc(-c2ccc(F)cc2)cc(N2CCN(c3ncc(CC(=O)O)cc3Cl)CC2)n1 [Example 93, (5-Chloro-6-{4-[6-(4-fluoro-phenyl)-2-(2-(R)-methyl-pyrrolidin-1-yl)-pyrimidin-4-yl]-piperazin-1-yl}-pyridin-3-yl)-acetic acid] | ≤ 1000 nM |
| C[C@@H]1CN(c2ncc(C(=O)O)cc2Cl)CCN1c1cc(-c2ccc(F)cc2)nc(N2CCC[C@H]2C)n1 [Example 94, 5-Chloro-6-{4-[6-(4-fluoro-phenyl)-2-(2-(R)-methyl-pyrrolidin-1-yl) - pyrimidin-4-yl]-3-(R)-methyl-piperazin-1-yl} - nicotinic acid] | ≤ 1000 nM |
| Cc1cc(C(=O)O)cnc1N1CCN(c2cc(-c3ccc(F)cc3)nc(N3CCC[C@H]3C)n2)[C@H](C)C1 [Example 95, 6-{4-[6-(4-Fluoro-phenyl)-2-(2-(R)-methyl-pyrrolidin-1-yl)-pyrimidin-4-yl]-3-(R)-methyl-piperazin-1-yl}-5-methyl-nicotinic acid] | ≤ 1000 nM |
| Cc1cc(C(=O)O)cnc1N1CCN(c2cc(-c3ccccc3)nc(N3CCC[C@H]3C)n2)[C@H](C)C1 [Example 96, 5-Methyl-6-{3-(R)-methyl-4-[2-(2-(R)-methyl-pyrrolidin-1-yl)-6-phenyl-pyrimidin-4-yl]-piperazin-1-yl}-nicotinic acid] | ≤ 1000 nM |
| CC1CCCN1c1nc(-c2ccc(F)c(Cl)c2)cc(N2CCN(c3ncc(C(N)=O)cn3)CC2)n1 (stereo not drawn) [Example 97, 2-{4-[6-(3-Chloro-4-fluoro-phenyl)-2-(2-methyl-pyrrolidin-1-yl)-pyrimidin-4-yl]-piperazin-1-yl}-pyrimidine-5-carboxylic acid amide] | ≤ 1000 nM |
| C[C@@H]1CN(c2ncc(CO)cc2Cl)CCN1c1cc(-c2ccc(F)cc2)nc(N2CCC[C@H]2C)n1 [Example 98, (5-Chloro-6-{4-[6-(4-fluoro-phenyl)-2-(2-(R)-methyl-pyrrolidin-1-yl)-pyrimidin-4-yl]-3-(R)-methyl-piperazin-1-yl}-pyridin-3-yl)-methanol] | ≤ 1000 nM |
| Cc1cc(C(=O)O)cnc1N1CCN(c2cc(-c3ccc(F)cc3)nc(N3CCC[C@@H]3C)n2)[C@H](C)C1 [Example 99, 6-{4-[6-(4-Fluoro-phenyl)-2-(2-(S)-methyl-pyrrolidin-1-yl)-pyrimidin-4-yl]-3-(R)-methyl-piperazin-1-yl}-5-methyl-nicotinic acid] | ≤ 1000 nM |
| C[C@@H]1CN(c2ncc(CC#N)cc2Cl)CCN1c1cc(-c2ccc(F)cc2)nc(N2CCC[C@H]2C)n1 [Example 100, (5-Chloro-6-{4-[6-(4-fluoro-phenyl)-2-(2-(R)-methyl-pyrrolidin-1-yl)-pyrimidin-4-yl]-3-(R)-methyl-piperazin-1-yl}-pyridin-3-yl)-acetonitrile] | ≤ 1000 nM |
| C[C@@H]1CN(c2ncc(CC(=O)O)cc2Cl)CCN1c1cc(-c2ccc(F)cc2)nc(N2CCC[C@H]2C)n1 [Example 101, (5-Chloro-6-{4-[6-(4-fluoro-phenyl)-2-(2-(R)-methyl-pyrrolidin-1-yl)-pyrimidin-4-yl]-3-(R)-methyl-piperazin-1-yl}-pyridin-3-yl)-acetic acid] | ≤ 1000 nM |
| C[C@@H]1CN(c2ncc(C(N)=O)cc2Cl)CCN1c1cc(-c2ccc(F)c(Cl)c2)nc(N2CCC[C@H]2C)n1 [Example 102, 5-Chloro-6-{4-[6-(3-chloro-4-fluoro-phenyl)-2-(2-(R)-methyl-pyrrolidin-l-yl)-pyrimidin-4-yl]-3-(R)-methyl-piperazin-1-yl}-nicotinamide] | ≤ 1000 nM |
| C[C@@H]1CN(c2ncc(C(=O)O)cc2Cl)CCN1c1cc(-c2ccc(F)c(Cl)c2)nc(N2CCC[C@H]2C)n1 [Example 103, 5-Chloro-6-{4-[6-(3-chloro-4-fluoro-phenyl)-2-(2-(R)-methyl-pyrrolidin-l-yl)-pyrimidin-4-yl]-3-(R)-methyl-piperazin-1-yl}-nicotinic acid] | ≤ 1000 nM |
| C[C@@H]1CN(c2ncc(C(=O)O)cc2Cl)CCN1c1cc(-c2ccc(F)cc2)nc(N2CCOC[C@H]2C)n1 [Example 104, 5-Chloro-6-{4-[6-(4-fluoro-phenyl)-2-(3-(R)-methyl-morpholin-4-yl)-pyrimidin-4-yl]-3-(R)-methyl-piperazin-1-yl}-nicotinic acid] | ≤ 1000 nM |
| Cc1cc(CC(=O)O)cnc1N1CCN(c2cc(-c3ccc(F)cc3)nc(N3CCC[C@H]3C)n2)[C@H](C)C1 [Example 105, (6-{4-[6-(4-Fluoro-phenyl)-2-(2-(R)-methyl-pyrrolidin-1-yl)-pyrimidin-4-yl]-3-(R)-methyl-piperazin-1-yl}-5-methyl-pyridin-3-yl)-acetic acid] | ≤ 1000 nM |
| Cc1cc(C(=O)NC2CC2)cnc1N1CCN(c2cc(-c3ccc(F)cc3)nc(N3CCCC3C)n2)CC1 (stereo not drawn) [Example 106, N-Cyclopropyl-6-{4-[6-(4-fluoro-phenyl)-2-(2-methyl-pyrrolidin-1-yl)-pyrimidin-4-yl]-piperazin-1-yl}-5-methyl-nicotinamide] | ≤ 1000 nM |
| Cc1cc(C(=O)NC2CCC2)cnc1N1CCN(c2cc(-c3ccc(F)cc3)nc(N3CCCC3C)n2)CC1 (stereo not drawn) [Example 107, N-cyclobutyl-6-{4-[6-(4-fluorophenyl)-2-(2-methylpyrrolidin-1-yl)pyrimidin-4-yl]piperazin-1-yl}-5-methylnicotinamide] | ≤ 1000 nM |
| Cc1cc(C(=O)NC2CCCC2)cnc1N1CCN(c2cc(-c3ccc(F)cc3)nc(N3CCCC3C)n2)CC1 (stereo not drawn) [Example 108, N-Cyclopentyl-6-{4-[6-(4-fluoro-phenyl)-2-(2-methyl-pyrrolidin-1-yl)-pyrimidin-4-yl]-piperazin-1-yl}-5-methyl-nicotinamide] | ≤ 1000 nM |
| COCCNC(=O)c1cnc(N2CCN(c3cc(-c4ccc(F)cc4)nc(N4CCCC4C)n3)CC2)c(C)c1 (stereo not drawn) [Example 109, 6-{4-[6-(4-fluorophenyl)-2-(2-methylpyrrolidin-1-yl)pyrimidin-4-yl]piperazin-1-yl}-N-(2-methoxyethyl)-5-methylnicotinamide] | ≤ 1000 nM |
| COCCCNC(=O)c1cnc(N2CCN(c3cc(-c4ccc(F)cc4)nc(N4CCCC4C)n3)CC2)c(C)c1 (stereo not drawn) [Example 110, 6-{4-[6-(4-fluorophenyl)-2-(2-methylpyrrolidin-1-yl)pyrimidin-4-yl]piperazin-1-yl}-N-(3-methoxypropyl)-5-methylnicotinamide] | ≤ 1000 nM |
| Cc1cc(C(=O)NCC2CCCO2)cnc1N1CCN(c2cc(-c3ccc(F)cc3)nc(N3CCCC3C)n2)CC1 (stereo not drawn) [Example 111, 6-{4-[6-(4-fluorophenyl)-2-(2-methylpyrrolidin-1-yl)pyrimidin-4-yl]piperazin-1-yl}-5-methyl-N-(tetrahydrofuran-2-ylmethyl)nicotinamide] | ≤ 1000 nM |
| CCOCCCNC(=O)c1cnc(N2CCN(c3cc(-c4ccc(F)cc4)nc(N4CCCC4C)n3)CC2)c(C)c1 (stereo not drawn) [Example 112, N-(3-ethoxypropyl)-6-{4-[6-(4-fluorophenyl)-2-(2-methylpyrrolidin-1-yl)pyrimidin-4-yl]piperazin-1-yl}-5-methylnicotinamide] | ≤ 1000 nM |
| Cc1cc(C(=O)NCc2ccccc2)cnc1N1CCN(c2cc(-c3ccc(F)cc3)nc(N3CCCC3C)n2)CC1 (stereo not drawn) [Example 113, N-benzyl-6-{4-[6-(4-fluorophenyl)-2-(2-methylpyrrolidin-1-yl)pyrimidin-4-yl]piperazin-1-yl}-5-methylnicotinamide] | ≤ 1000 nM |
| Cc1cc(C(=O)NCc2ccc(F)cc2)cnc1N1CCN(c2cc(-c3ccc(F)cc3)nc(N3CCCC3C)n2)CC1 (stereo not drawn) [Example 114, N-(4-fluorobenzyl)-6-{4-[6-(4-fluorophenyl)-2-(2-methylpyrrolidin-1-yl)pyrimidin-4-yl]piperazin-1-yl}-5-methylnicotinamide] | ≤ 1000 nM |
| COc1ccc(CNC(=O)c2cnc(N3CCN(c4cc(-c5ccc(F)cc5)nc(N5CCCC5C)n4)CC3)c(C)c2)cc1 (stereo not drawn) [Example 115, 6-{4-[6-(4-fluorophenyl)-2-(2-methylpyrrolidin-1-yl)pyrimidin-4-yl]piperazin-1-yl}-N-(4-methoxybenzyl)-5-methylnicotinamide] | ≤ 1000 nM |
| Cc1cc(C(=O)NCCCN(C)C)cnc1N1CCN(c2cc(-c3ccc(F)cc3)nc(N3CCCC3C)n2)CC1 (stereo not drawn) [Example 116, N-[3-(dimethylamino)propyl]-6-{4-[6-(4-fluorophenyl)-2-(2-methylpyrrolidin-1-yl)pyrimidin-4-yl]piperazin-1-yl}-5-methylnicotinamide] | ≤ 1000 nM |
